Experimental data taken from patent US12617803B2, “Condensed isoxazoline derivatives and their use as herbicides” (BASF SE, priority 2020, dated 2026).

Assays:
Assay type in all cases: in vivo
[1] = tested on: APESV (Apera spica-venti); test: greenhouse pre-emergence herbicidal test; settings: scale from 0 to 100, read-out: herbicidal activity against APESV; for pest or weed control at 125 g/ha: pre-emergence, 0.125 kg/ha; for pest or weed control at 250 g/ha: pre-emergence, 0,250 kg/ha
Source text: (§1) The seeds of the test plants were sown separately for each species. For the pre-emergence treatment, the active ingredients, which had been suspended or emulsified in water, were applied directly after sowing by means of finely distributing nozzles. The containers were irrigated gently to promote germination and growth and subsequently covered with transparent plastic hoods until the test plants had rooted. This cover caused uniform germination of the test plants, unless this had been impaired by the active ingredients. For the post-emergence treatment, the test plants were first grown to a height of 3 to 15 cm, depending on the plant habit, and only then treated with the active ingredients which had been suspended or emulsified in water. For this purpose, the test plants were either sown directly and grown in the same containers, or they were first grown separately as seedlings and transplanted into the test containers a few days prior to treatment. Depending on the species, the test plants were kept at 10-25° C. or 20-35° C., respectively. The test period extended over 2 to 4 weeks. During this time, the test plants were tended, and their response to the individual treatments was evaluated. Evaluation was carried out using a scale from 0 to 100. 100 means no emergence of the test plants, or complete destruction of at least the aerial moieties, and 0 means no damage, or normal course of growth. A good herbicidal activity is given at values of 70 to 90 and a very good herbicidal activity is given at values of 90 to 100. The test plants used in the greenhouse experiments were of the following species: [table]

[2] = tested on: ALOMY (Alopercurus myosuroides); test: greenhouse post-emergence herbicidal test; settings: 0.125 kg/ha, scale from 0 to 100
Source text: as §1

[3] = tested on: AMARE (Amaranthus retroflexus); test: greenhouse post-emergence herbicidal test; settings: scale from 0 to 100
Source text: as §1

AVEFA (Avena fatua) = test: greenhouse post-emergence herbicidal test; settings: scale from 0 to 100, read-out: herbicidal activity against AVEFA; for pest or weed control at 125 g/ha: 0.125 kg/ha; for pest or weed control at 250 g/ha: 0.250 kg/ha; for pest or weed control at 630 g/ha: 0.63 kg/ha
Source text: as §1

SETVI (Setaria viridis) = test: greenhouse post-emergence herbicidal test; settings: scale from 0 to 100
Source text: as §1

[4] = tested on: ABUTH (Abutilon theophrasti); test: greenhouse post-emergence herbicidal test; settings: 0.500 kg/ha, scale from 0 to 100
Source text: as §1

[5] = tested on: AMARE (Amaranthus retroflexus); test: greenhouse pre-emergence herbicidal test; settings: 0.125 kg/ha, scale from 0 to 100
Source text: as §1

[6] = tested on: ECHCG (Echinocloa crus-galli); test: greenhouse pre-emergence herbicidal test; settings: pre-emergence, 0,250 kg/ha, scale from 0 to 100
Source text: as §1

SETFA (Setaria faberi) = test: greenhouse pre-emergence herbicidal test; settings: scale from 0 to 100
Source text: as §1

[7] = tested on: POLCO (Fallopia convolvulus); test: greenhouse post-emergence herbicidal test; settings: 0.63 kg/ha, scale from 0 to 100
Source text: as §1

[8] = tested on: ECHCG (Echinocloa crus-galli); test: greenhouse post-emergence herbicidal test; settings: 0.63 kg/ha, scale from 0 to 100
Source text: as §1

With `COC(=O)CC[C@H](C)NC(=O)C12CCCC1C(c1cc(Cl)cc(Cl)c1)=NO2` (some centres unmarked) [I2] the pest or weed control at 125 g/ha [1] was 70 to 90%, the “herbicidal activity against ALOMY” value [2] was “very good (a very good herbicidal activity is given at values of 90 to 100)” and the “herbicidal activity against AMARE” value ([3]; 0.125 kg/ha) was “good (A good herbicidal activity is given at values of 70 to 90)”. It also gave a pest or weed control at 125 g/ha (AVEFA (Avena fatua)) of 90 to 100%.

`COC(=O)CC[C@H](C)NC(=O)C12CC1C(c1cc(F)cc(F)c1)=NO2` (stereo partly drawn) [I16, methyl (4S)-4-[[4-(3,5-difluorophenyl)-2-oxa-3-azabicyclo[3.1.0]hex-3-ene-1-carbonyl]amino]pentanoate] gave a pest or weed control at 250 g/ha [1] of 70 to 90% and a pest or weed control at 250 g/ha (AVEFA (Avena fatua)) of 90 to 100%.

In the case of `COC(=O)C1C=C[C@H](NC(=O)C23CC2C(c2cc(Cl)cc(Cl)c2)=NO3)C1` (some centres unmarked) [I17], the pest or weed control at 250 g/ha [1] was 90 to 100% and the pest or weed control at 250 g/ha (AVEFA (Avena fatua)) was 90 to 100%.

In the case of `COC(=O)CC[C@H](C)NC(=O)C12ON=C(c3cc(F)cc(F)c3)C1CCS2` (some centres unmarked) [I15], the pest or weed control at 500 g/ha ([1]; pre-emergence, 0,500 kg/ha) was 70 to 90%, the “herbicidal activity against SETVI” value (SETVI (Setaria viridis); 0.500 kg/ha) was “very good (a very good herbicidal activity is given at values of 90 to 100)” and the “herbicidal activity against ABUTH” value [4] was “good (A good herbicidal activity is given at values of 70 to 90)”. The pest or weed control at 500 g/ha (AVEFA (Avena fatua); 0.500 kg/ha) was 90 to 100%.

With `COC(=O)[C@@H]1C=C[C@H](NC(=O)C23NCCC2C(c2cc(Cl)cc(Cl)c2)=NO3)C1` (stereo partly drawn) [I10, methyl (1S,4R)-4-[3-(3,5-dichlorophenyl)-3aH,4H,5H,6H-pyrrolo[3,2-d][1,2]oxazole-6a-amido]cyclopent-2-ene-1-carboxylate] the pest or weed control at 250 g/ha [1] was 70 to 90% and the pest or weed control at 250 g/ha (AVEFA (Avena fatua)) was 90 to 100%.

`COC(=O)[C@@H]1C=C[C@H](NC(=O)C23CCCC2C(c2cc(Cl)cc(Cl)c2)=NO3)C1` (some centres unmarked) [I1] was tested, and the “herbicidal activity against AMARE” value [5] was “very good (a very good herbicidal activity is given at values of 90 to 100)”, the pest or weed control at 125 g/ha [1] was 90 to 100% and the “herbicidal activity against ALOMY” value [2] was “good (A good herbicidal activity is given at values of 70 to 90)”. For the same molecule, the “herbicidal activity against AMARE” value ([3]; 0.125 kg/ha) was “very good (a very good herbicidal activity is given at values of 90 to 100)” and the pest or weed control at 125 g/ha (AVEFA (Avena fatua)) was 70 to 90%.

For `COC(=O)[C@@H]1C=C[C@H](NC(=O)C23ON=C(c4cc(Cl)cc(Cl)c4)C2CCS3)C1` (stereo partly drawn) [I13, methyl (1S,4R)-4-[[3-(3,5-dichlorophenyl)-4,5-dihydro-3aH-thieno[3,2-d]isoxazole-6a-carbonyl]amino]cyclopent-2-ene-1-carboxylate], the pest or weed control at 250 g/ha [1] was 90 to 100%, the “herbicidal activity against ECHCG” value [6] was “very good (a very good herbicidal activity is given at values of 90 to 100)” and the pest or weed control at 250 g/ha (AVEFA (Avena fatua)) was 90 to 100%.

`COC(=O)[C@@H]1C=C[C@H](NC(=O)C23ON=C(c4cc(Cl)cc(Cl)c4)C2CCC3(C)C)C1` (some centres unmarked) [I12] was tested, and the “herbicidal activity against SEFTA” value (SETFA (Setaria faberi); pre-emergence, 0.125 kg/ha) was “good (A good herbicidal activity is given at values of 70 to 90)”.

`COC(=O)[C@H]1CC[C@H](NC(=O)C23CCC2C(c2cc(Cl)cc(Cl)c2)=NO3)C1` (some centres unmarked) [I21] was tested, and the “herbicidal activity against AMARE” value ([3]; 0.63 kg/ha) was “very good (a very good herbicidal activity is given at values of 90 to 100)”, the “herbicidal activity against POLCO” value [7] was “good (A good herbicidal activity is given at values of 70 to 90)” and the pest or weed control at 630 g/ha (AVEFA (Avena fatua)) was 70 to 90%.

In the case of `COC(=O)[C@H]1C[C@@H](NC(=O)C23CCC2C(c2cc(Cl)cc(Cl)c2)=NO3)CO1` (some centres unmarked) [I20], the “herbicidal activity against SETVI” value (SETVI (Setaria viridis); 0.63 kg/ha) was “very good (a very good herbicidal activity is given at values of 90 to 100)”, the pest or weed control at 630 g/ha (AVEFA (Avena fatua)) was 90 to 100% and the “herbicidal activity against ECHCG” value [8] was “good (A good herbicidal activity is given at values of 70 to 90)”.

`COC(=O)[C@@H]1C=C[C@H](NC(=O)C23C=CCC2C(c2cc(F)cc(F)c2)=NO3)C1` (stereo partly drawn) [I19, methyl (1S,4R)-4-[[3-(3,5-difluorophenyl)-3a,4-dihydrocyclopenta[d]isoxazole-6a-carbonyl]amino]cyclopent-2-ene-1-carboxylate] was tested, and the “herbicidal activity against SETFA” value (SETFA (Setaria faberi); pre-emergence, 0,250 kg/ha) was “very good (a very good herbicidal activity is given at values of 90 to 100)”, the pest or weed control at 250 g/ha [1] was 90 to 100% and the pest or weed control at 250 g/ha (AVEFA (Avena fatua)) was 90 to 100%.
